Patent publication US20210395226A1, “SUBSTITUTED ARYL COMPOUND AND PREPARATION METHOD THEREFOR AND USE THEREOF” (SICHUAN KELUN-BIOTECH BIOPHARMACEUTICAL CO., LTD., priority 2018, published 2021)
Read-outs that look alike come from different tables or passages of the source.

Legend:
ADORA2a/CHOK1 cells = biological target: T1, ADORA2a/CHOK1 cells (Homo sapiens, UniProt P29274); experiment: Inhibitory activity for ADORA2a/CHOK1 cells (cAMP detection, adenosine as agonist); type: cell-based; details: for inhibition at 0.1 µM: CHO-K1, 100 nM compound, read-out: Inhibition rate at 100 nM; for inhibition at 1 µM: CHO-K1, 1000 nM compound, read-out: Inhibition rate at 1000 nM
T1 construct: host or cells: CHO-K1
T1 sequence (P29274 whole entry): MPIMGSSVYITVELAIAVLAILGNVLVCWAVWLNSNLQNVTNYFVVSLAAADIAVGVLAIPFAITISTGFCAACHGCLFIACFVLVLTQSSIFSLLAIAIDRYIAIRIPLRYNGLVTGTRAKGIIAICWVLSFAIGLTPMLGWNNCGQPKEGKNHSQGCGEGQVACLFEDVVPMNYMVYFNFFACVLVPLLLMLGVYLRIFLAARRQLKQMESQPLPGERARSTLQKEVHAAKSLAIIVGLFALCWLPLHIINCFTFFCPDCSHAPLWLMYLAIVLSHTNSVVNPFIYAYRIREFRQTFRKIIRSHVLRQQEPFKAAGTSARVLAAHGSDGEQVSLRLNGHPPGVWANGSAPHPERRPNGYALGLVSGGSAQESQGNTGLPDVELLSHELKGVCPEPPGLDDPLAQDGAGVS
Protocol: Test Example 2: Study on Inhibitory Activity for ADORA2a/CHOK1 Cells
ADORA2a/CHOK1 cells (Cobai, CBP71017).
FBS was added to Ham's F-12 medium to a concentration of 10% (v/v), Zeocin was added to a final concentration of 200 μg/mL, and Hygromycin B was added to a final concentration of 100 μg/mL, and the resulting mixture was stored at 4° C. for later use.
A certain amount of adenosine was precisely weighed and placed into a 1.5 mL EP tube, then a certain volume of cell culture medium was added, the resulting mixture was incubated at 37° C. for dissolution, thereby a 10 mM stock solution was prepared. The stock solution was diluted with cell culture medium at 1:1000 to get 10 μM adenosine solution.
The compound to be tested was dissolved in DMSO to form a 10 mM stock solution, and the stock solution was stored in a refrigerator at 4° C. for later use. The stock solution was diluted with the 10 μM of adenosine solution to 2000 nM or 200 nM for later test.
(1) CHO-K1 cells stably expressing ADORA2A receptor were cultured in a 37° C., 5% CO2 cell incubator. When the cell confluence reached about 80%, the cells were digested by trypsin, dispersed and counted; (2) the cell concentration was adjusted to 6×10^5 cells/mL according to the counting results; (3) the cells was inoculated into a white 384-well cell culture plate at 5 μL per well (about 3000 cells/well).
All groups were provided with multiple wells, the adenosine-free cell culture medium was added to the wells of the Blank group (5 μL/well); 10 μM adenosine solution was added to the wells of the Agonist group (5 μL/well); the diluted compound was added to the wells of the test compound group (5 μL/well). After the addition of the compound was completed, the 384-well plate was centrifuged at 2500 rpm for 30 seconds to fully mix the compound and the medium, then placed in a 25° C. incubator and incubated for 30 min.
A certain volume of cAMP-d2 was taken, and diluted by adding Lysis & Detection Buffer at the ratio of 1:5 to prepare Solution A.
A certain volume of cAMP-Cryptate was taken, and diluted by adding Lysis & Detection Buffer at the ratio of 1:5 to prepare Solution B.
(2) After 30 min of incubation in step 2 was completed, addition of detection solution was carried out. The 384-well plate was taken out, 5 μL of Solution A was added to each well, and then 5 μL of Solution B was added to each well, then the 384-well plate was covered with sealing membrane, centrifuged at 2500 rpm for 30 s (to fully mix the detection solution and medium), and incubated in a thermostat at 25° C. for 1 h.
After the incubation, the 384-well plate was taken out, and detected by PHERA Star FS to read data, detection wavelength: 620 nm/665 nm.
inhibition rate %=(1−(RCompound−RBlank)/(RAgonist−RBlank))*100%
wherein, RCompound represented the R Value of the test compound group, RAgonist represented the R value of the Agonist group, and RBlank represented the R value of the Blank group.

[1] = Pharmacokinetics (PK) and distribution in brain tissue in rats; type: in vivo, male SD rats; details: for bioavailability / Cmax / AUC(0-t): male, SD; for bioavailability: plasma, oral 5 mg/kg compared with intravenous 1 mg/kg; for bioavailability / Plasma AUClast/brain AUClast: rat; for Cmax / AUC(0-t): rat plasma; for AUClast (brain): rat brain tissue
Protocol: Test Example 3: Study on Pharmacokinetics (PK) and Distribution in Brain Tissue in Rats
The compounds of the present application were administered to male SD rats by intravenous (IV) and intragastric (PO) respectively to investigate the pharmacokinetic characteristics. The dosages of IV and PO were 1 mg/kg and 5 mg/kg, respectively. The solvent for IV was a mixture of 5% DMSO, 5% Solutol (polyethylene glycol 15-hydroxystearate) and 90% saline, and the solvent for PO was 0.5% MC (methyl cellulose sodium). Before IV administration (0 h) and at 0.083 h, 0.25 h, 0.5 h, 1 h, 2 h, 4 h, 6 h, 8 h and 24 h time points after administration, blood samples were collected; before PO administration (0 h) and at 0.25 h, 0.5 h, 1 h, 2 h, 4 h, 6 h, 8 h and 24 h time points after administration, blood samples were collected; the blood samples were anticoagulated with EDTA.K2, and centrifuged to obtain plasma samples. For Compound 11, brain tissue samples were taken and homogenized at 0.25 h, 0.5 h, 1 h, 4 h and 8 h; for Compounds 19 and 32, and brain tissue samples were taken and homogenized at 0.25 h, 0.5 h, 1 h and 8 h (three SD rats were selected for the experiment of distribution in brain tissue at each time point), and the resulting brain tissue homogenate samples were stored at −80° C. The plasma samples and brain tissue homogenate samples were subjected to precipitation of protein, and then LC-MS/MS analysis was performed.
Pharmacokinetic parameters were calculated by means of non-compartmental model by using WinNonlin 6.3 software.

[2] = PO, 5 mg/kg, read-out: AUClast (plasma)

Q: What does the source list for Cc1ncnc2ccc(-c3cnc(NC(=O)N4CCOCC4)nc3-c3ccc(F)cc3)cc12 [Compound 11, N-(4-(4-fluorophenyl)-5-(4-methylquinazolin-6-yl)pyrimidin-2-yl) morpholine-4-carboxamide]?
A: inhibition at 0.1 µM (ADORA2a/CHOK1 cells): 72%; inhibition at 1 µM (ADORA2a/CHOK1 cells): 112%; bioavailability [1]: 65.3%; Cmax ([1]; IV, 1 mg/kg): 1.31 µg/mL; AUC(0-t) ([1]; IV, 1 mg/kg, read-out: AUClast): 0.985 µg·h/mL; AUC(0-t) [1, 2]: 3.22 µg·h/mL; AUClast (brain) ([1]; PO, 5 mg/kg): 11.4 ng·h/g; Plasma AUClast/brain AUClast ([1]; PO, 5 mg/kg): 282/1

Q: For Cc1cc(-c2cnc(NC(=O)N3CCOCC3)nc2-c2ccc(F)cc2)cc(Cl)n1 [Compound 19, N-(5-(2-chloro-6-methylpyridin-4-yl)-4-(4-fluorophenyl)pyrimidin-2-yl) morpholine-4-carboxamide], which inhibition at 0.1 µM (ADORA2a/CHOK1 cells) is on record?
A: 33.9%

Q: What about the inhibition at 1 µM (ADORA2a/CHOK1 cells) of the same molecule?
A: 94.4%

Q: And the bioavailability [1]?
A: 86.8%

Q: And the Cmax ([1]; IV, 1 mg/kg)?
A: 1.15 µg/mL

Q: What about the AUC(0-t) ([1]; IV, 1 mg/kg, read-out: AUClast) of the same molecule?
A: 2.63 µg·h/mL

Q: What about the AUC(0-t) [1, 2] of the same molecule?
A: 11.4 µg·h/mL

Q: And the “AUClast (brain)” value ([1]; PO, 5 mg/kg)?
A: 70.2 ng·h/g

Q: And the “Plasma AUClast/brain AUClast” value ([1]; PO, 5 mg/kg)?
A: 163/1
